This test deals with MAPK14 (human) (UniProt Q16539). As to the kind of experiment: Enzyme Assay.

“And” between values parts separate entries of the source, which are not always exact repeats. Identical values can stand only once.

The record followed here is the Kinase Knowledgebase extract (Sharma et al. 2016).

Sequence of MAPK14 (human) (Q16539 whole entry, looked up): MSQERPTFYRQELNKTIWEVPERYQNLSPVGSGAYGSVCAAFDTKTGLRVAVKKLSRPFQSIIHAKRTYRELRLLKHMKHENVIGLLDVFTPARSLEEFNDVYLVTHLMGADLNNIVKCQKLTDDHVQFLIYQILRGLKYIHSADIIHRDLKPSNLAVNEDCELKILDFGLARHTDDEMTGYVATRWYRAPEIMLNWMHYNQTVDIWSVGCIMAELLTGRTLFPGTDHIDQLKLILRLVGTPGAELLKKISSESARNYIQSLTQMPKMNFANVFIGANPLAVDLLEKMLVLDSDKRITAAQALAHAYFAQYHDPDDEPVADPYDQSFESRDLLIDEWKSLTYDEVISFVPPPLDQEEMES

Turning to `CC(C)(C)c1cc(NC(=O)Nc2cccc3ccccc23)n(-c2cccc(C(=O)NCCNc3ccccc3)c2)n1`, the Ki – broadly, the dissociation constant of the complex between target and ligand, obtained from inhibition or displacement – was 433 nM.
`CC(C)CC(CNC(=O)c1cccc(-n2nc(C(C)(C)C)cc2NC(=O)Nc2cccc3ccccc23)c1)C(N)=O` (stereo not given) came in with a Ki of 786 nM.
Compound `CC(C)(C)c1cc(NC(=O)Nc2cccc3ccccc23)n(-c2cccc(C(=O)N(CCCN)C3CCCCC3)c2)n1` yielded a Ki of 89 nM.
Turning to `CC(C)(C)c1cc(NC(=O)Nc2cccc3ccccc23)n(-c2cccc(C(=O)NCC#N)c2)n1`, the Kd (in general, the concentration at which binding is half-saturated) is 55 nM; the Ki was 250 nM and 252 nM.
For the compound `CN1CCN(CCNC(=O)c2cccc(-n3nc(C(C)(C)C)cc3NC(=O)Nc3cccc4ccccc34)c2)CC1`, the Ki was determined as 140 nM.
In turn, `CC(C)(C)c1cc(NC(=O)Nc2cccc3ccccc23)n(-c2cccc(C(=O)N[C@@H]3CS(=O)(=O)C[C@H]3O)c2)n1` yielded a Ki of 112 nM.
With `CCN(CCN(C)C)C(=O)c1cccc(-n2nc(C(C)(C)C)cc2NC(=O)Nc2cccc3ccccc23)c1`, the Ki worked out at 735 nM.
Same read-out and setting: the value for `CC(C)CN(CCCN)C(=O)c1cccc(-n2nc(C(C)(C)C)cc2NC(=O)Nc2cccc3ccccc23)c1` was 312 nM.
In turn, `CC(C)(C)c1cc(NC(=O)Nc2cccc3ccccc23)n(-c2cccc(C(=O)NC3CCN(CCN4CCOCC4)CC3)c2)n1` gave a Ki of 885 nM.
The compound `CC(C)(C)c1cc(NC(=O)Nc2cccc3ccccc23)n(-c2cccc(C(=O)NCCCN3CCCC3)c2)n1` yielded a Ki of 301 nM.
`CC(C)(C)c1cc(NC(=O)Nc2cccc3ccccc23)n(-c2cccc(C(=O)NCc3ccncn3)c2)n1` registered a Ki of 327 nM.
Turning to `COCCCN1CCC(NC(=O)c2cccc(-n3nc(C(C)(C)C)cc3NC(=O)Nc3cccc4ccccc34)c2)CC1`, the Ki turned out to be 336 nM.
For the compound `CC(C)[C@H](CO)CNC(=O)c1cccc(-n2nc(C(C)(C)C)cc2NC(=O)Nc2cccc3ccccc23)c1`, the Ki stood at 471 nM.
In turn, `CC(C)(C)c1cc(NC(=O)Nc2cccc3ccccc23)n(-c2cccc(C(=O)NCCCN3CCOCC3)c2)n1` returned a Ki of 291 nM.
